The nature of data set [1]: Stability of cleaved substrate in plasma, SRM-MS. The data set is classed as in vitro ADME. Particulars: human plasma 25 μl diluted fivefold in assay buffer pH 5.8, 1 pmole to 1 amole spiked, ACN precipitation, n = 3. On the procedure:
Figure 2 Detection of Cleaved Substrate Peptide by Mass Spectrometry A-B. 10 ng of recombinant AEP (rAEP) was incubated with 1 μg (0.65 mM) synthetic substrate peptide (hpvFAANDVSKvph) overnight at 37°C. Samples were dried down by vacuum centrifuge and resuspended in LB. 5 pmole of the substrate was loaded on to the liquid chromatography column and cleaved substrate was analysed by SRM MS (A) followed by an DDA workflow (B). (A) Three SRM transitions (b4-481.25^+, b5-552.29^+, b6-623.33^+) were used to detect the cleaved substrate, sequenced as hpvFAAN (378.2^2+ precursor ion). The target peptide eluted at 32 min during the chromatographic gradient. (B) Product ion scans of precursor 378.2^2+ as analysed by DDA. C. […] Samples were resuspended in LB and analyzed by SRM MS. […]
For an assay to measure enzyme activity it is important that the product is stable for the duration of the assay and is present at a level that can be detected. The limit of detection (LOD) and stability of the product hpvFAAN were analysed by serial dilution down to 1 amole in the presence or absence of plasma using SRM MS analysis. This allowed the LOD to be calculated as 2 amole with a linear response up to 1 pmole without a plasma background (Figure 2C). […]

The target in data set [2] is T1, recombinant human AEP (rAEP) (Homo sapiens, UniProt Q99538).
T1 construct: 7xHis (N); purchased R & D Systems, Abingdon, UK; host or cells: NS0 murine myeloma cell line
T1 sequence (Q99538 18-323 limits assumed): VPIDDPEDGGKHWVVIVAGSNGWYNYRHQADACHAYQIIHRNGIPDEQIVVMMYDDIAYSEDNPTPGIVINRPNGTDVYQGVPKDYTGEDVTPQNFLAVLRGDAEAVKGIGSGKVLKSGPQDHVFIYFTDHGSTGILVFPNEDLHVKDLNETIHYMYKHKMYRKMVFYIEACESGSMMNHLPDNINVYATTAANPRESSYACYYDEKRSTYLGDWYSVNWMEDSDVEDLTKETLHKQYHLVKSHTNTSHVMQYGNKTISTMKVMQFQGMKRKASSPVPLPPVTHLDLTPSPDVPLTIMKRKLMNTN
As to the kind of experiment: Michaelis-Menten / Lineweaver-Burk kinetics of rAEP with synthetic substrate, product measured by SRM-MS. Type of data set: biochemical. Particulars: 16 hr incubation at 37°C; 10 ng rAEP; substrate 0.02 mM to 1.3 mM; Lineweaver-Burk plot; SRM-MS peak area of product; n = 3. The method, then: Figure 3 Development of Assay Conditions to Monitor AEP Activity in Plasma A. The level of hydrolysis of AEP substrate with respect to time. 2.44 ng/μl and 9.1 ng/μl of rAEP were spiked into a background of pH modified plasma (pH 5.8) and assayed by SRM-MS for the product peptide. Error bars shown are +/−SD (n = 3). B-C. Rate of AEP activity assayed with different concentrations of substrate (hpvFAANDVSKvph) ranging from 0.02 mM to 1.3 mM. Area under the curve, drawn from SRM-MS of the product peptide, was used to obtain the rate of reaction for AEP activity as shown in Michaelis-Menten Curve (B). […] D. The linearity and limit-of-detection of the AEP assay was investigated by measuring the amount of hydrolysis by 2.0 pg to 0.25 ng of rAEP spiked into 25 μl of plasma and product measured by SRM-MS of Error bars shown are +/−SEM (n = 3). The assay was repeated three times and a technical variance of 3-28% was calculated.
To optimise substrate concentration in our assay, 10 ng of rAEP was incubated with 0.02 mM to 1.3 mM of synthetic substrate for 1 hr, 4 hr (Supplementary Figure S2) or 16 hr (Figure 3B and 3C) at 37°C. The rate of reaction was determined from the amount of product formed per hour and used for Michaelis-Menten enzyme kinetic analysis (Figure 3B). […]
All samples were analysed on a 6500 Q-TRAP (AB Sciex, Warrington, UK) coupled to a nano Acquity uPLC (Waters Inc, MA, US). […]

Square brackets hold non-standard residues; d marks the D form. Peptide text beside a SMILES is read from it.

For the compound `CC(C)[C@@H](NC(=O)[C@H]1CCCN1C(=O)[C@H](N)Cc1c[nH]cn1)C(=O)N[C@@H](Cc1ccccc1)C(=O)N[C@@H](C)C(=O)N[C@@H](C)C(=O)N[C@@H](CC(N)=O)C(=O)O` [hpvFAAN] (H-[dH][dP][dV]FAAN-OH), in data set [1], the “Stability of the product in plasma” value is recorded as “stable”.
As usually defined, the Km is the concentration of substrate that gives half-maximal velocity. Turning to `CC(C)[C@H](NC(=O)[C@H](CC(=O)O)NC(=O)[C@H](CC(N)=O)NC(=O)[C@H](C)NC(=O)[C@H](C)NC(=O)[C@H](Cc1ccccc1)NC(=O)[C@H](NC(=O)[C@H]1CCCN1C(=O)[C@H](N)Cc1c[nH]cn1)C(C)C)C(=O)N[C@@H](CO)C(=O)N[C@@H](CCCCN)C(=O)N[C@@H](C(=O)N1CCC[C@@H]1C(=O)N[C@H](Cc1c[nH]cn1)C(=O)O)C(C)C` [hpvFAANDVSKvph] (H-[dH][dP][dV]FAANDVSK[dV][dP][dH]-OH), the Km in data set [2] is 400 µM.

These data come from article PMC5342591, “Development of a selected reaction monitoring mass spectrometry-based assay to detect asparaginyl endopeptidase activity in biological fluids” (Oncotarget, 2016).
